One test concerns SCD1. The test can be described thus: Measurement of SCD1 expression in SZ95-SCD1-HiBit cells (HiBiT assay). It is filed as cell-based. Particulars: Homo sapiens, 48 h; for EC50: SCD1 protein production, luminescence, initial dilution 1:3 in DMSO, read-out: HiBit EC50. A general note: The HiBiT peptide binds its large partner to form an active luciferase.
In another test the test system is SZ95 sebocytes. The test can be described thus: Sentinel Lipid Assay (SLA), desaturation index in SZ95 sebocytes. Format: cell-based. Particulars: Homo sapiens, 72 h; for EC50: desaturation index, lowest dose used 4.6 nM, read-out: SLA EC50. An outline of the steps: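 SZ95 human sebocytes on fibronectin-coated plates, dosed 72 h at 37 °C with 1:3 dilutions from 10 μM; lipids extracted with deuterated triglyceride internal standards and quantified by LC-MS/MS (MRM) as 11 sentinel lipids. Desaturation index from elastic-net coefficients, normalized to DMSO; Amax relative to a reference LXR agonist.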

The mark [1] stands for this setting: normalized Amax based on the reference compound Amax of 100%, read-out: HiBit Normalized Amax.
The mark [2] stands for this setting: SZ95-SCD1-HiBit cells, compared to reference compound, read-out: HiBit Amax.
[3] abbreviates: normalized Amax based on the reference compound Amax of 100%, read-out: SLA Normalized Amax.
Setting [4] is: SZ95 cells, compared to reference compound, read-out: SLA Amax.

The source of these data is patent US11427586B2, “1,2,4-oxadiazole derivatives as liver X receptor agonists” (NOVARTIS AG, priority 2019, dated 2022).

Where two headings read alike, the source gives them in different places. A value given as a limit tells only on which side of the number the result lay.

In general, EC50 refers to the midpoint of the concentration-response curve. As to `CC(C)CS(=O)(=O)c1ccccc1Oc1ccc(-c2noc(CN3C(=O)N(CCN4CCOCC4)C4(CCN(C(=O)CCN(C)C)CC4)C3=O)n2)cc1C(F)(F)F` [Compound 32, 8-(3-(dimethylamino)propanoyl)-3-((3-(4-(2-(isobutylsulfonyl)phenoxy)-3-(trifluoromethyl)phenyl)-1,2,4-oxadiazol-5-yl)methyl)-1-(2-morpholinoethyl)-1,3,8-triazaspiro[4.5]decane-2,4-dione], the Emax in the test with SCD1 (setting [1]) stood at 84.9%; in the test on SCD1 (setting [2]) it was 80.7%; in the test on SZ95 sebocytes (setting [3]), 100%; with SZ95 sebocytes (setting [4]), 96.2%. For the same molecule, the EC50 is 2.42 nM in the test with SCD1 (SZ95-SCD1-HiBit cells) and no more than 4.6 nM in the test with SZ95 sebocytes (SZ95 cells).

Consider `CC(C)CS(=O)(=O)c1ccccc1Oc1ccc(-c2noc(CN3C(=O)N(CCN4CCOCC4)C4(CCN(C(=O)c5ccncn5)CC4)C3=O)n2)cc1C(F)(F)F` [Compound 34, 3-((3-(4-(2-(isobutylsulfonyl)phenoxy)-3-(trifluoromethyl)phenyl)-1,2,4-oxadiazol-5-yl)methyl)-1-(2-morpholinoethyl)-8-(pyrimidine-4-carbonyl)-1,3,8-triazaspiro[4.5]decane-2,4-dione], for which the Emax in the test on SCD1 (setting [1]) is 85.7%; in the test on SCD1 (setting [2]), 81.5%; with SZ95 sebocytes (setting [3]), 171%; with SZ95 sebocytes (setting [4]) it was 164%. The EC50 in the test on SCD1 (SZ95-SCD1-HiBit cells) was 0.38 nM; with SZ95 sebocytes (SZ95 cells), no more than 4.6 nM.

Turning to `O=C1N(Cc2nc(-c3ccc(Oc4ccccc4S(=O)(=O)CC4CCCO4)c(C(F)(F)F)c3)no2)C(=O)C2(CCOCC2)N1CCN1CCOCC1` (stereo not drawn) [Compound 56, 1-(2-morpholinoethyl)-3-((3-(4-(2-(((tetrahydrofuran-2-yl)methyl)sulfonyl)phenoxy)-3-(trifluoromethyl)phenyl)-1,2,4-oxadiazol-5-yl)methyl)-8-oxa-1,3-diazaspiro[4.5]decane-2,4-dione], the Emax with SCD1 (setting [1]) worked out at 76.6%; in the test with SCD1 (setting [2]) it was 72.8%; in the test with SZ95 sebocytes (setting [3]), 187%; in the test with SZ95 sebocytes (setting [4]), 180%. For the same molecule, the EC50 in the test on SCD1 (SZ95-SCD1-HiBit cells) was 1.01 nM; with SZ95 sebocytes (SZ95 cells), no more than 4.6 nM.

As for `COCCS(=O)(=O)c1ccccc1Oc1ccc(-c2noc(CN3C(=O)N(CC4CC4)C(C)(C)C3=O)n2)cc1C(F)(F)F` [Compound 54, 1-(cyclopropylmethyl)-3-((3-(4-(2-((2-methoxyethyl)sulfonyl)phenoxy)-3-(trifluoromethyl)phenyl)-1,2,4-oxadiazol-5-yl)methyl)-5,5-dimethylimidazolidine-2,4-dione], the Emax with SCD1 (setting [1]) was determined as 84.9%; in the test with SCD1 (setting [2]), 80.7%; in the test on SZ95 sebocytes (setting [3]), 157%; in the test on SZ95 sebocytes (setting [4]) it was 151%. Further, the EC50 was 3.86 nM with SCD1 (SZ95-SCD1-HiBit cells) and no more than 4.6 nM in the test with SZ95 sebocytes (SZ95 cells).

As to `CC(C)CS(=O)(=O)c1ccccc1Oc1ccc(-c2noc(CN3C(=O)N(CCN4CCOCC4)C4(CCN(C)CC4)C3=O)n2)cc1C(F)(F)F` [Compound 10, 3-((3-(4-(2-(isobutylsulfonyl)phenoxy)-3-(trifluoromethyl)phenyl)-1,2,4-oxadiazol-5-yl)methyl)-8-methyl-1-(2-morpholinoethyl)-1,3,8-triazaspiro[4.5]decane-2,4-dione], the Emax turned out to be 111% in the test on SCD1 (setting [1]), 106% in the test on SCD1 (setting [2]), 129% with SZ95 sebocytes (setting [3]) and 124% in the test with SZ95 sebocytes (setting [4]). Also, the values for the EC50 in the test with SCD1 (SZ95-SCD1-HiBit cells) and in the test with SZ95 sebocytes (SZ95 cells) were 0.079 nM and no more than 4.6 nM, respectively.

`CC(COc1ccc(-c2noc(CN3C(=O)N(CCN4CCOCC4)C4(CCN(C5CCC5)CC4)C3=O)n2)cc1C(F)(F)F)(C(F)(F)F)C(F)(F)F` [Compound 14, 8-cyclobutyl-1-(2-morpholinoethyl)-3-((3-(4-(3,3,3-trifluoro-2-methyl-2-(trifluoromethyl)propoxy)-3-(trifluoromethyl)phenyl)-1,2,4-oxadiazol-5-yl)methyl)-1,3,8-triazaspiro[4.5]decane-2,4-dione]: the Emax is 91% in the test on SCD1 (setting [1]), 86.5% in the test on SCD1 (setting [2]), 130% in the test with SZ95 sebocytes (setting [3]) and 125% in the test with SZ95 sebocytes (setting [4]). Also, the concentration for a half-maximal effect (EC50) in the test with SCD1 (SZ95-SCD1-HiBit cells) was 0.241 nM; in the test with SZ95 sebocytes (SZ95 cells), no more than 4.6 nM.
